Measurements published in patent US9487515B2, “Compounds modulating c-fms and/or c-kit activity and uses therefor” (Plexxikon Inc., priority 2006, dated 2016).

Molecular target: c-kit (Homo sapiens, UniProt P10721)
Assay: c-kit assays of Examples 40 and 41 (AlphaScreen kinase assays at 10 and 100 μM ATP, 33P-ATP filter assay, M-07e SCF-stimulated proliferation and phosphorylation)

Chain of c-kit (P10721 with tags, fused parts or gaps): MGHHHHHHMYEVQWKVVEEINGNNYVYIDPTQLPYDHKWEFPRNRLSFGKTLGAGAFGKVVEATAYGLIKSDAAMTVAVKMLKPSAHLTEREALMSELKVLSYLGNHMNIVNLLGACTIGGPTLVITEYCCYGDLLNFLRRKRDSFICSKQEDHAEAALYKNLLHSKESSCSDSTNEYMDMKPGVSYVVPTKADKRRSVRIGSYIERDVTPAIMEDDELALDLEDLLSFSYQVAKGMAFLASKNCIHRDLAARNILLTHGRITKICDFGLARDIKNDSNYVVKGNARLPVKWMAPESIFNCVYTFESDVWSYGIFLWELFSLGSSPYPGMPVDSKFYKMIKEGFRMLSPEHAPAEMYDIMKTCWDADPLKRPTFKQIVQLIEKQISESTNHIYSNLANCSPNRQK

Compound	IC50 [nM]
CCc1nc(C)c(CNc2nc(Cl)c(Cc3c[nH]c4ncccc34)s2)[nH]1 [P-0205, [4-Chloro-5-(1H-pyrrolo[2,3-b]pyridin-3-ylmethyl)-thiazol-2-yl]-(2-ethyl-5-methyl-3H-imidazol-4-ylmethyl)-amine]	< 1000
Cc1cc(CNc2nc(Cl)c(Cc3c[nH]c4ncccc34)s2)sc1C [P-0208, [4-Chloro-5-(1H-pyrrolo[2,3-b]pyridin-3-ylmethyl)-thiazol-2-yl]-(4,5-dimethyl-thiophen-2-ylmethyl)-amine]	< 1000
c1ccc(CCNc2ccc(Cc3c[nH]c4ncccc34)cn2)cc1 [P-0211, Phenethyl-[5-(1H-pyrrolo[2,3-b]pyridin-3-ylmethyl)-pyridin-2-yl]-amine]	< 1000
Fc1ccc(CNc2ccc(Cc3c[nH]c4ncccc34)cn2)c(F)c1 [P-0212, (2,4-Difluoro-benzyl)-[5-(1H-pyrrolo[2,3-b]pyridin-3-ylmethyl)-pyridin-2-yl]-amine]	< 1000
Fc1ccccc1CNc1ccc(Cc2c[nH]c3ncccc23)cn1 [P-0213, (2-Fluoro-benzyl)-[5-(1H-pyrrolo[2,3-b]pyridin-3-ylmethyl)-pyridin-2-yl]-amine]	< 1000
Brc1cnccc1CNc1ccc(Cc2c[nH]c3ncccc23)cn1 [P-0214, (3-Bromo-pyridin-4-ylmethyl)-[5-(1H-pyrrolo[2,3-b]pyridin-3-ylmethyl)-pyridin-2-yl]-amine]	< 1000
COc1ncccc1CNc1ccc(Cc2c[nH]c3ncccc23)cn1 [P-0215, (2-Methoxy-pyridin-3-ylmethyl)-[5-(1H-pyrrolo[2,3-b]pyridin-3-ylmethyl)-pyridin-2-yl]-amine]	< 1000
Clc1ccccc1CNc1ccc(Cc2c[nH]c3ncccc23)cn1 [P-0216, (2-Chloro-benzyl)-[5-(1H-pyrrolo[2,3-b]pyridin-3-ylmethyl)-pyridin-2-yl]-amine]	< 1000
Cc1ccccc1CNc1ccc(Cc2c[nH]c3ncccc23)cn1 [P-0217, (2-Methyl-benzyl)-[5-(1H-pyrrolo[2,3-b]pyridin-3-ylmethyl)-pyridin-2-yl]-amine]	< 1000
Cn1c(CNc2ccc(Cc3c[nH]c4ncccc34)cn2)nc2ccccc21 [P-0218, (1-Methyl-1H-benzoimidazol-2-ylmethyl)-[5-(1H-pyrrolo[2,3-b]pyridin-3-ylmethyl)-pyridin-2-yl]-amine]	< 1000
COc1ccc(CNc2ccc(Cc3c[nH]c4ncccc34)cn2)cn1 [P-0219, (6-Methoxy-pyridin-3-ylmethyl)-[5-(1H-pyrrolo[2,3-b]pyridin-3-ylmethyl)-pyridin-2-yl]-amine]	< 1000
Fc1ccc(CNc2ccc(Cc3c[nH]c4ncccc34)cn2)c(Cl)c1 [P-0221, (2-Chloro-4-fluoro-benzyl)-[5-(1H-pyrrolo[2,3-b]pyridin-3-ylmethyl)-pyridin-2-yl]-amine]	< 1000
COc1cncc(CNc2ccc(Cc3c[nH]c4ncccc34)cn2)c1 [P-0222, (5-Methoxy-pyridin-3-ylmethyl)-[5-(1H-pyrrolo[2,3-b]pyridin-3-ylmethyl)-pyridin-2-yl]-amine]	< 1000
COc1cccc(CNc2ccc(Cc3c[nH]c4ncccc34)cn2)n1 [P-0224, (6-Methoxy-pyridin-2-ylmethyl)-[5-(1H-pyrrolo[2,3-b]pyridin-3-ylmethyl)-pyridin-2-yl]-amine]	< 1000
Fc1ccc(CNc2ccc(Cc3c[nH]c4ncccc34)cn2)c(C(F)(F)F)c1 [P-0225, (4-Fluoro-2-trifluoromethyl-benzyl)-[5-(1H-pyrrolo[2,3-b]pyridin-3-ylmethyl)-pyridin-2-yl]-amine]	< 1000
FC(F)(F)c1ccccc1CNc1ccc(Cc2c[nH]c3ncccc23)cn1 [P-0226, [5-(1H-Pyrrolo[2,3-b]pyridin-3-ylmethyl)-pyridin-2-yl]-(2-trifluoromethyl-benzyl)-amine]	< 1000
c1cc(CNc2ccc(Cc3c[nH]c4ncccc34)cn2)nc(N2CCOCC2)c1 [P-0228, (6-Morpholin-4-yl-pyridin-2-ylmethyl)-[5-(1H-pyrrolo[2,3-b]pyridin-3-ylmethyl)-pyridin-2-yl]-amine]	< 1000
Cc1cnc2[nH]cc(Cc3ccc(NCc4ccc(C(F)(F)F)nc4)nc3Cl)c2c1 [P-0234, [6-Chloro-5-(5-methyl-1H-pyrrolo[2,3-b]pyridin-3-ylmethyl)-pyridin-2-yl]-(6-trifluoromethyl-pyridin-3-ylmethyl)-amine]	< 1000
Clc1cnc2[nH]cc(Cc3sc(NCc4ccncc4)nc3Cl)c2c1 [P-0237, [4-Chloro-5-(5-chloro-1H-pyrrolo[2,3-b]pyridin-3-ylmethyl)-thiazol-2-yl]-pyridin-4-ylmethyl-amine]	< 1000
CCn1cc(CNc2nc(Cl)c(Cc3c[nH]c4ncc(Cl)cc34)s2)cn1 [P-0239, [4-Chloro-5-(5-chloro-1H-pyrrolo[2,3-b]pyridin-3-ylmethyl)-thiazol-2-yl]-(1-ethyl-1H-pyrazol-4-ylmethyl)-amine]	< 1000
FC(F)(F)c1ccc(CNc2nc(Cl)c(Cc3c[nH]c4ncc(Cl)cc34)s2)cn1 [P-0242, [4-Chloro-5-(5-chloro-1H-pyrrolo[2,3-b]pyridin-3-ylmethyl)-thiazol-2-yl]-(6-trifluoromethyl-pyridin-3-ylmethyl)-amine]	< 1000
Fc1cccc(Cl)c1CNc1nc(Cl)c(Cc2c[nH]c3ncc(Cl)cc23)s1 [P-0243, [4-Chloro-5-(5-chloro-1H-pyrrolo[2,3-b]pyridin-3-ylmethyl)-thiazol-2-yl]-(2-chloro-6-fluoro-benzyl)-amine]	< 1000
Clc1cnc2[nH]cc(Cc3sc(NCCc4ccccc4)nc3Cl)c2c1 [P-0244, [4-Chloro-5-(5-chloro-1H-pyrrolo[2,3-b]pyridin-3-ylmethyl)-thiazol-2-yl]-phenethyl-amine]	< 1000
Fc1ccc(CNc2nc(Cl)c(Cc3c[nH]c4ncc(Cl)cc34)s2)c(F)c1 [P-0245, [4-Chloro-5-(5-chloro-1H-pyrrolo[2,3-b]pyridin-3-ylmethyl)-thiazol-2-yl]-(2,4-difluoro-benzyl)-amine]	< 1000
Fc1ccccc1CNc1nc(Cl)c(Cc2c[nH]c3ncc(Cl)cc23)s1 [P-0246, [4-Chloro-5-(5-chloro-1H-pyrrolo[2,3-b]pyridin-3-ylmethyl)-thiazol-2-yl]-(2-fluoro-benzyl)-amine]	< 1000
Clc1cnc2[nH]cc(Cc3sc(NCc4cccc(N5CCOCC5)n4)nc3Cl)c2c1 [P-0252, [4-Chloro-5-(5-chloro-1H-pyrrolo[2,3-b]pyridin-3-ylmethyl)-thiazol-2-yl]-(6-morpholin-4-yl-pyridin-2-ylmethyl)-amine]	< 1000

Now from value to compound:

IC50 [nM]	Compound
< 1000	FC(F)(F)c1ccc(CNc2nc(Cl)c(Cc3c[nH]c4ncccc34)s2)cn1 [P-0173, [4-Chloro-5-(1H-pyrrolo[2,3-b]pyridin-3-ylmethyl)-thiazol-2-yl]-(6-trifluoromethyl-pyridin-3-ylmethyl)-amine]
< 1000	FC(F)(F)c1ccc(CNc2ccc(Cc3c[nH]c4ncccc34)c(Cl)n2)cn1 [P-0174, [6-Chloro-5-(1H-pyrrolo[2,3-b]pyridin-3-ylmethyl)-pyridin-2-yl]-(6-trifluoromethyl-pyridin-3-ylmethyl)-amine]
< 1000	FC(F)(F)c1ccc(CNc2ccc(Cc3c[nH]c4ncc(Cl)cc34)c(Cl)n2)cn1 [P-0176, [6-Chloro-5-(5-chloro-1H-pyrrolo[2,3-b]pyridin-3-ylmethyl)-pyridin-2-yl]-(6-trifluoromethyl-pyridin-3-ylmethyl)-amine]
< 1000	FC(F)(F)c1ccc(CNc2ccc(Cc3c[nH]c4ncccc34)cn2)cn1 [P-0182, [5-(1H-Pyrrolo[2,3-b]pyridin-3-ylmethyl)-pyridin-2-yl]-(6-trifluoromethyl-pyridin-3-ylmethyl)-amine]
< 1000	Fc1nc(NCc2ccc(C(F)(F)F)nc2)ccc1Cc1c[nH]c2ncc(Cl)cc12 [P-0186, [5-(5-Chloro-1H-pyrrolo[2,3-b]pyridin-3-ylmethyl)-6-fluoro-pyridin-2-yl]-(6-trifluoromethyl-pyridin-3-ylmethyl)-amine]
< 1000	COc1cnc2[nH]cc(Cc3ccc(NCc4ccc(C(F)(F)F)nc4)nc3F)c2c1 [P-0187, [6-Fluoro-5-(5-methoxy-1H-pyrrolo[2,3-b]pyridin-3-ylmethyl)-pyridin-2-yl]-(6-trifluoromethyl-pyridin-3-ylmethyl)-amine]
< 1000	Fc1nc(NCc2ccc(C(F)(F)F)nc2)ccc1Cc1c[nH]c2ncccc12 [P-0188, [6-Fluoro-5-(1H-pyrrolo[2,3-b]pyridin-3-ylmethyl)-pyridin-2-yl]-(6-trifluoromethyl-pyridin-3-ylmethyl)-amine]
< 1000	COc1ccc(CNc2nc(Cl)c(Cc3c[nH]c4ncc(Cl)cc34)s2)cn1 [P-0190, [4-Chloro-5-(5-chloro-1H-pyrrolo[2,3-b]pyridin-3-ylmethyl)-thiazol-2-yl]-(6-methoxy-pyridin-3-ylmethyl)-amine]
< 1000	Clc1cnc2[nH]cc(Cc3sc(NCc4ccccc4)nc3Cl)c2c1 [P-0192, Benzyl-[4-chloro-5-(5-chloro-1H-pyrrolo[2,3-b]pyridin-3-ylmethyl)-thiazol-2-yl]-amine]
< 1000	COc1cccc(CNc2nc(Cl)c(Cc3c[nH]c4ncc(Cl)cc34)s2)c1 [P-0193, [4-Chloro-5-(5-chloro-1H-pyrrolo[2,3-b]pyridin-3-ylmethyl)-thiazol-2-yl]-(3-methoxy-benzyl)-amine]
< 1000	Clc1ccc(CNc2nc(Cl)c(Cc3c[nH]c4ncc(Cl)cc34)s2)cc1 [P-0194, (4-Chloro-benzyl)-[4-chloro-5-(5-chloro-1H-pyrrolo[2,3-b]pyridin-3-ylmethyl)-thiazol-2-yl]-amine]
< 1000	CCc1nc(C)c(CNc2nc(Cl)c(Cc3c[nH]c4ncc(Cl)cc34)s2)[nH]1 [P-0197, [4-Chloro-5-(5-chloro-1H-pyrrolo[2,3-b]pyridin-3-ylmethyl)-thiazol-2-yl]-(2-ethyl-5-methyl-3H-imidazol-4-ylmethyl)-amine]
< 1000	COc1cccc(CNc2nc(Cl)c(Cc3c[nH]c4ncc(Cl)cc34)s2)n1 [P-0199, [4-Chloro-5-(5-chloro-1H-pyrrolo[2,3-b]pyridin-3-ylmethyl)-thiazol-2-yl]-(6-methoxy-pyridin-2-ylmethyl)-amine]
